Our source for the mortality and growth values is ChEMBL document CHEMBL3822390, “Synthesis, characterization and anti-cancer activity of a peptide nucleolipid bioconjugate” (2016).

Type in all cases: functional
In experiment [1] the test system is A549. As to the kind of experiment: Cytotoxicity against human A549 cells assessed as cell mortality at 10 uM after 48 hrs by SRB assay. Conditions: A549, 48 h. Background: Sulforhodamine B stains cellular protein and so reports cell mass.
Experiment [2] concerns NCI-H226. As to the kind of experiment: Cytotoxicity against human NCI-H226 cells assessed as cell mortality at 10 uM after 48 hrs by SRB assay. Conditions: NCI-H226, 48 h.
The next experiment has as its system CCRF-CEM. In words: Cytotoxicity against human CCRF-CEM cells assessed as cell growth at 10 uM after 48 hrs by SRB assay. Conditions: read-out: Activity.
Experiment [3] is described as follows: Cytotoxicity against human RPMI8226 cells assessed as cell growth at 10 uM after 48 hrs by SRB assay. Conditions: RPMI-8226, 48 h, read-out: Activity.
In experiment [4] the test system is NCI-H322M. In words: Cytotoxicity against human NCI-H322M cells assessed as cell growth at 10 uM after 48 hrs by SRB assay. Conditions: read-out: Activity.
The nature of experiment [5]: Cytotoxicity against human HCT116 cells assessed as cell growth at 10 uM after 48 hrs by SRB assay. Conditions: HCT-116, 48 h, read-out: Activity.
The nature of experiment [6]: Cytotoxicity against human HCT15 cells assessed as cell growth at 10 uM after 48 hrs by SRB assay. Conditions: HCT-15, 48 h, read-out: Activity.
Experiment [7] can be described thus: Cytotoxicity against human SW620 cells assessed as cell growth at 10 uM after 48 hrs by SRB assay. Conditions: SW-620, 48 h, read-out: Activity.
A short description of experiment [8]: Cytotoxicity against human SF268 cells assessed as cell growth at 10 uM after 48 hrs by SRB assay. Conditions: SF-268, 48 h, read-out: Activity.
Experiment [9] is described as follows: Cytotoxicity against human SNB75 cells assessed as cell growth at 10 uM after 48 hrs by SRB assay. Conditions: SNB-75, 48 h, read-out: Activity.
For a further experiment, the system named is SK-MEL-2. As to the kind of experiment: Cytotoxicity against human SK-MEL-2 cells assessed as cell growth at 10 uM after 48 hrs by SRB assay. Conditions: SK-MEL-2, 48 h, read-out: Activity.
Experiment [10] concerns 786-0. In words: Cytotoxicity against human 786-0 cells assessed as cell growth at 10 uM after 48 hrs by SRB assay. Conditions: 786-0, 48 h, read-out: Activity.
Experiment [11] can be described thus: Cytotoxicity against human UO31 cells assessed as cell growth at 10 uM after 48 hrs by SRB assay. Conditions: UO-31, 48 h, read-out: Activity.
The subject of the next experiment is MDA-MB-231. As to the kind of experiment: Cytotoxicity against human MDA-MB-231 cells assessed as cell growth at 10 uM after 48 hrs by SRB assay. Conditions: MDA-MB-231, 48 h, read-out: Activity.
For the next experiment, the system named is T47D. In words: Cytotoxicity against human T47D cells assessed as cell growth at 10 uM after 48 hrs by SRB assay. Conditions: read-out: Activity.
For experiment [12], the system named is MDA-MB-468. As to the kind of experiment: Cytotoxicity against human MDA-MB-468 cells assessed as cell growth at 10 uM after 48 hrs by SRB assay. Conditions: MDA-MB-468, 48 h, read-out: Activity.
Another experiment relates to HT-29. As to the kind of experiment: Cytotoxicity against human HT-29 cells assessed as cell growth at 7.25 uM after 48 hrs by SRB assay. Conditions: HT-29, 48 h, read-out: Activity.
Experiment [13] in a line: Cytotoxicity against human SF268 cells assessed as cell growth at 7.25 uM after 48 hrs by SRB assay. Conditions: SF-268, 48 h, read-out: Activity.
In experiment [14] the test system is 786-0. In words: Cytotoxicity against human 786-0 cells assessed as cell growth at 7.25 uM after 48 hrs by SRB assay. Conditions: 786-0, 48 h, read-out: Activity.
Experiment [15] can be described thus: Cytotoxicity against human PC3 cells assessed as cell growth at 7.25 uM after 48 hrs by SRB assay. Conditions: PC-3, 48 h, read-out: Activity.
In experiment [16] the test system is MDA-MB-468. In words: Cytotoxicity against human MDA-MB-468 cells assessed as cell growth at 7.25 uM after 48 hrs by SRB assay. Conditions: MDA-MB-468, 48 h, read-out: Activity.
A short description of experiment [17]: Cytotoxicity against human HL-60(TB) cells assessed as cell growth at 7.25 uM after 48 hrs by SRB assay. Conditions: HL-60, 48 h, read-out: Activity.
Experiment [18] relates to K562. In words: Cytotoxicity against human K562 cells assessed as cell growth at 7.25 uM after 48 hrs by SRB assay. Conditions: K562, 48 h, read-out: Activity.
Experiment [19] in a line: Cytotoxicity against human RPMI8226 cells assessed as cell growth at 7.25 uM after 48 hrs by SRB assay. Conditions: RPMI-8226, 48 h, read-out: Activity.
The next experiment has as its system SR. As to the kind of experiment: Cytotoxicity against human SR cells assessed as cell growth at 7.25 uM after 48 hrs by SRB assay. Conditions: read-out: Activity.
Experiment [20] has as its system A549. As to the kind of experiment: Cytotoxicity against human A549 cells assessed as cell growth at 7.25 uM after 48 hrs by SRB assay. Conditions: A549, 48 h, read-out: Activity.
In experiment [21] the test system is EKVX. As to the kind of experiment: Cytotoxicity against human EKVX cells assessed as cell growth at 7.25 uM after 48 hrs by SRB assay. Conditions: read-out: Activity.
In experiment [22] the test system is NCI-H226. As to the kind of experiment: Cytotoxicity against human NCI-H226 cells assessed as cell growth at 7.25 uM after 48 hrs by SRB assay. Conditions: NCI-H226, 48 h, read-out: Activity.
The next experiment concerns NCI-H23. In words: Cytotoxicity against human NCI-H23 cells assessed as cell growth at 7.25 uM after 48 hrs by SRB assay. Conditions: NCI-H23, 48 h, read-out: Activity.
A short description of experiment [23]: Cytotoxicity against human LOXIMVI cells assessed as cell growth at 2.13 uM after 48 hrs by SRB assay. Conditions: LOX IMVI, read-out: Activity.
Experiment [24] is described as follows: Cytotoxicity against human OVCAR4 cells assessed as cell growth at 2.13 uM after 48 hrs by SRB assay. Conditions: OVCAR-4, 48 h, read-out: Activity.
Another experiment relates to ACHN. As to the kind of experiment: Cytotoxicity against human ACHN cells assessed as cell growth at 2.13 uM after 48 hrs by SRB assay. Conditions: read-out: Activity.
The nature of experiment [25]: Cytotoxicity against human DU145 cells assessed as cell growth at 2.13 uM after 48 hrs by SRB assay. Conditions: DU-145, 48 h, read-out: Activity.
Experiment [26] deals with K562. As to the kind of experiment: Cytotoxicity against human K562 cells assessed as cell growth at 2.13 uM after 48 hrs by SRB assay. Conditions: K562, 48 h, read-out: Activity.
Experiment [27] in a line: Cytotoxicity against human MOLT4 cells assessed as cell growth at 2.13 uM after 48 hrs by SRB assay. Conditions: MOLT-4, 48 h, read-out: Activity.
Experiment [28] can be described thus: Cytotoxicity against human RPMI8226 cells assessed as cell growth at 2.13 uM after 48 hrs by SRB assay. Conditions: RPMI-8226, 48 h, read-out: Activity.
Experiment [29] deals with A549. In words: Cytotoxicity against human A549 cells assessed as cell growth at 2.13 uM after 48 hrs by SRB assay. Conditions: A549, 48 h, read-out: Activity.
Experiment [30] concerns EKVX. In words: Cytotoxicity against human EKVX cells assessed as cell growth at 2.13 uM after 48 hrs by SRB assay. Conditions: read-out: Activity.
Experiment [31] in a line: Cytotoxicity against human HOP62 cells assessed as cell growth at 2.13 uM after 48 hrs by SRB assay. Conditions: HOP-62, 48 h, read-out: Activity.
Experiment [32] relates to NCI-H322M. As to the kind of experiment: Cytotoxicity against human NCI-H322M cells assessed as cell growth at 2.13 uM after 48 hrs by SRB assay. Conditions: read-out: Activity.
Experiment [33] in a line: Cytotoxicity against human HCC2998 cells assessed as cell growth at 2.13 uM after 48 hrs by SRB assay. Conditions: HCC 2998, 48 h, read-out: Activity.

For the molecule `CC(C)C[C@H](NC(=O)[C@H](CCCCN)NC(=O)[C@H](C)NC(=O)[C@H](CC(C)C)NC(=O)[C@H](CCCCN)NC(=O)[C@H](CCCCN)NC(=O)[C@H](C)NC(=O)[C@H](CC(C)C)NC(=O)[C@H](CCCCN)NC(=O)[C@H](C)NC(=O)[C@H](CC(C)C)NC(=O)[C@H](CCCCN)NC(=O)[C@@H](N)CC(=O)O)C(=O)N[C@@H](C)C(=O)N[C@@H](CCCCN)C(=O)N[C@@H](C)C(=O)N[C@@H](CCCCN)C(N)=O`, the mortality (commonly the percentage killed) at 10 µM in the experiment on A549 [1] came out at 19%; with NCI-H226 [2], 1%. Besides, the growth at 10 µM in the experiment on CCRF-CEM stood at 108%; in [3], 104%; with NCI-H322M [4] it was 110%; in [5] it was 92.1%; in experiment [6], 108%; in experiment [7], 106%. For the same molecule, the growth at 10 µM in experiment [8] is 94.7%; in experiment [9] it was 98.8%; in the experiment with SK-MEL-2 it was 90.7%; in the experiment with 786-0 [10], 105%; in experiment [11], 98%; in the experiment on MDA-MB-231, 109%. The values for the growth at 10 µM in the experiment on T47D and in the experiment on MDA-MB-468 [12] were 113% and 100%, respectively.
`CCCCCCCCCCCCCCCC(=O)NCCCC[C@H](NC(=O)[C@H](C)NC(=O)[C@H](CCCCN)NC(=O)[C@H](C)NC(=O)[C@H](CC(C)C)NC(=O)[C@H](CCCCN)NC(=O)[C@H](C)NC(=O)[C@H](CC(C)C)NC(=O)[C@H](CCCCN)NC(=O)[C@H](CCCCN)NC(=O)[C@H](C)NC(=O)[C@H](CC(C)C)NC(=O)[C@H](CCCCN)NC(=O)[C@H](C)NC(=O)[C@H](CC(C)C)NC(=O)[C@H](CCCCN)NC(=O)[C@@H](N)CC(=O)O)C(N)=O`: the growth at 7.25 µM in the experiment on HT-29 came out at 92.4%; in experiment [13], 105%; with 786-0 [14], 107%; in experiment [15] it was 91.2%; in the experiment with MDA-MB-468 [16] it was 95.9%; in experiment [17] it was 93.1%. For the same molecule, the growth at 7.25 µM in the experiment with K562 [18] amounted to 102%; in experiment [19], 103%; in the experiment with SR, 91.9%; in the experiment on A549 [20] it was 67.6%; in the experiment on EKVX [21] it was 105%; in the experiment with NCI-H226 [22] it was 99.5%. The growth at 7.25 µM with NCI-H23 was determined as 104%.
Take `CCCCCCCCCCCCCCCCNCCO[C@H]1C[C@H](n2cc(C)c(=O)[nH]c2=O)O[C@@H]1C(=O)NCCCC[C@H](NC(=O)[C@H](C)NC(=O)[C@H](CCCCN)NC(=O)[C@H](C)NC(=O)[C@H](CC(C)C)NC(=O)[C@H](CCCCN)NC(=O)[C@H](C)NC(=O)[C@H](CC(C)C)NC(=O)[C@H](CCCCN)NC(=O)[C@H](CCCCN)NC(=O)[C@H](C)NC(=O)[C@H](CC(C)C)NC(=O)[C@H](CCCCN)NC(=O)[C@H](C)NC(=O)[C@H](CC(C)C)NC(=O)[C@H](CCCCN)NC(=O)[C@@H](N)CC(=O)O)C(N)=O`: the growth at 2.13 µM in experiment [23] was 94.6%; in experiment [24] it was 112%; with ACHN, 106%; in experiment [25], 109%; in the experiment with K562 [26], 106%; in experiment [27], 97.8%. For the same molecule, the growth at 2.13 µM in experiment [28] worked out at 104%; in the experiment on A549 [29] it was 68.7%; with EKVX [30], 103%; in experiment [31], 99.4%; in the experiment on NCI-H322M [32] it was 110%; in experiment [33], 104%.
